In ChEMBL document CHEMBL1201862, “PubChem BioAssay data set” (2004):
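Step 1: Grow cells in 96-well plates. Step 2: Expose to compound for 48 hours at 5 concentrations. Step 3: Interpolate endpoints linearly; if unreached, use highest concentration. GI50 marks 50% less growth.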 Activity calls are given as the source filed them. Cut-off read from the data, not from the text of the source: active = GI50 up to about 1.1 µM and inactive = higher.

How the values were obtained:
Assay in all cases: NCI-60 cell line screen, 48 h
[1] = test system: 786-0
[2] = test system: KM12
[3] = test system: SNB-19
[4] = test system: SF-539
[5] = test system: MDA-MB-435
[6] = test system: HT-29
[7] = test system: U-251
[8] = test system: K562
[9] = test system: SK-MEL-2
[10] = test system: LOX IMVI
[11] = test system: NCI-H23
[12] = test system: OVCAR-3
[13] = test system: MDA-MB-231
[14] = test system: MOLT-4
[15] = test system: COLO 205
[16] = test system: MCF7
[17] = test system: T47D
[18] = test system: BT-549
[19] = test system: HCC 2998

Measured: GI50

C(=NCCN1CCOCC1)=NC1CCCCC1
inactive: [1] > 100 µM | [2] > 100 µM | [3] > 100 µM | [4] > 100 µM | [5] > 100 µM | [6] > 100 µM | [7] > 100 µM | [8] > 100 µM | [9] > 100 µM | [10] > 100 µM | [11] > 100 µM | [12] > 100 µM | [13] > 100 µM | [14] > 100 µM | [15] > 100 µM | [16] > 100 µM | [17] > 100 µM | [18] > 100 µM

OC(Cc1ccc2ccccc2n1)(C(F)(F)F)C(F)(F)F
inactive: [1] > 10 µM | [2] > 10 µM | [19] > 10 µM | [3] > 10 µM | [4] > 10 µM | [5] > 10 µM | [6] > 10 µM | [7] > 10 µM | [8] > 10 µM | [10] > 10 µM | [11] > 10 µM | [12] > 10 µM | [13] > 10 µM | [14] > 10 µM | [15] > 10 µM | [16] > 10 µM | [17] > 10 µM | [18] > 10 µM

[N-]=[N+]=Nc1ccccc1-c1ccccc1[N+](=O)[O-]
inactive: [1] 88.1 µM | [2] 49.2 µM | [3] > 100 µM | [5] 32.3 µM | [6] 44.3 µM | [7] 42.9 µM | [8] 31.3 µM | [9] 27.2 µM | [10] 48.6 µM | [11] 35.1 µM | [12] 39.4 µM | [13] 50.2 µM | [14] 22.1 µM | [16] 52 µM | [17] 38.4 µM | [18] 32.3 µM

Cc1cc2c(c(C(=O)NCC(=O)N[C@@H](C)C(=O)OCc3ccccc3)c1)Oc1c(cc(C)cc1C(=O)NCC(=O)N[C@@H](C)C(=O)OCc1ccccc1)S2
inactive: [1] > 100 µM | [2] > 100 µM | [19] 34.7 µM | [3] > 100 µM | [5] > 100 µM | [6] > 100 µM | [7] > 100 µM | [8] 23 µM | [9] 24.9 µM | [11] > 100 µM | [12] 22 µM | [13] 34.4 µM | [14] 78 µM | [15] > 100 µM | [16] > 100 µM | [17] 2.41 µM | [18] > 100 µM
